Reference: patent US20120058956A1, “PEPTIDES DERIVED FROM FICOLIN AS SURFACTANTS” (METAMOREFIX LTD., priority 2009, published 2012)

Assay: transport of hyaluronic acid through pig skin (Franz cell)
Experimental: Skin samples (stored at −80° C.) were thawed at 4° C. for approximately 15 hr followed by 1 hr at room temperature prior to use. A thawed pig dermatomed skin sample was mounted horizontally on a Franz cell, dermis side down. […] The receptor phase consisted of PBS pH 7.4 with continuous stirring.
A test formulation, formulated as a suspension was applied to the skin and uniformly dispersed over the skin surface at a surface density of at least 1.0 g/cm^2 to insure pseudo-infinite dose conditions. The formulations consisted of a peptide surfactant of the invention together with hyaluronic acid. The formulations used were as described in the following table: […]
The dose chamber was sealed with an occlusive film to prevent loss of any volatile component of the test formulation. […] Each aliquot was replaced with an equal volume of PBS.
The samples were analyzed for the presence of hyaluronic acid by the Carbazole method as is known in the art.

Compound | HA traversed the skin (pH 7.4) | HA traversed the skin (control, surfactant omitted, 5 mg/ml HA, period of 6 hours, Franz cell, receptor PBS pH 7.4, curve 1 in FIG. 1)
CCCCCCCCCCCC(=O)N(C)CC(=O)[O-].[Na+] [NLS, N Lauroyl Sarcosine Sodium salt] | about 65 ?g/cm^2 | –
hyaluronic acid [HA] | – | about 40 ?g/cm^2
